Experiments:
Assay type in all cases: cell-based
[1] = test system: HUVEC; test: Tube maintenance assay; conditions: VEGF-A165-treated HUVEC in collagen, 24 h treatment (FIG. 3C)
Protocol: A 96-well plate was coated with 70 μl of collagen/media solution (NaOH 0.1N, 48 μL 10× Na2HCO3 and 0.5 mL EBM2) and allowed to solidify at 37° C. for 3 min. HUVEC were seeded at a density of 8×10^5 cells for well in 100 μl complete culture medium. After confluent monolayer formation, a second collagen gel layer with EBM2 supplemented with 50 ng/ml of VEGF-A165 was added over cells and plates were incubated for 24 h at 37° C. and 5% CO2 to allow tube formation.

[2] = test system: VAL; test: WST-1 proliferation assay, VAL; conditions: Homo sapiens; B lymphoma VAL; read-out: Anti-proliferative activity IC50 (μM) ± SD
Protocol: (§1) All the cancer cell lines were maintained in cultured in DMEM GlutaMAX™ (GIBCO Invitrogen, France, cat no 31966047) enhanced with 10% foetal bovine serum (GIBCO Invitrogen, France, cat no 10270-106) and 1% penicillin G/streptomycin (GIBCO Invitrogen, France, cat no 15140-122). Only Panc-10.5 cells were cultivated in RPMI 1640 medium (Gibco) supplemented with 2 mM L-glutamine, 1.5 g/L sodium bicarbonate, 4.5 g/L glucose, 10 mM HEPES, 1 mM sodium pyruvate, 10 Units/ml human insulin, […] (SVF): 15% (75 ml in 500 ml of medium).
(§2) Cells were grown as subconfluent monolayer and cultured in 75 cm^2 flasks at 37° C., 5% CO2 in a humidified atmosphere, and medium was changed every two days. […]
(§3) The cell proliferation WST-1 assay is a colorimetric assay for the quantification of cell proliferation and viability, based on the enzymatic cleavage of the tetrazolium salt WST-1 added to the culture medium, to a water soluble colored formazan dye, detected by absorbance at 450 nm, by mitochondrial succinate-tetrazolium reductase in viable cells. […]
(§4) After an incubation period of 72 h, at day 4, were prepared the 19 ml medium with reagent WST-1 1 ml ([…]). […] The cells were incubated at 37° C. in a humidified atmosphere of 5% CO2 for 1 h 30 and the absorbance at 450-655 nm was measured by Microplate Manager 5.2 (Bio-Rad).

[3] = test system: HeLa; test: WST-1 proliferation assay, HeLa; conditions: Homo sapiens
[4] = test system: U87 glioblastoma; test: WST-1 proliferation assay, U87; conditions: Homo sapiens; for IC50: Brain U87, 72 h, read-out: Anti-proliferative activity IC50 (μM) ± SD; for inhibition at 0.1 µM / inhibition at 0.5 µM / inhibition at 1 µM: U87 glioblastoma
Excerpt: (§5) Several cancer cell lines were used: breast cancer cells (MDA-MB-231 (ATTCC® Number HTB-26™), MDA-MB-436 (ATTCC® Number HTB-130™), MDA-MB-438, BT-474 (ATTCC® Number HTB-20™)); cervical cancer cells (HeLa (ATTCC® Number CCL-2™)); colon cancer cells (HCT-116 (ATTCC® Number CCL-247™) and HT-29 (ATTCC® Number HTB-38™)); osteosarcoma cells (U2OS (ATTCC® Number HTB-96™)); pancreas cancer cells (MIA PaCa-2 (ATTCC® Number CRL-1420™) and Panc-10.5 (ATTCC® Number CRL-2547™)); prostate cancer cells (PC-3 (ATTCC® Number CRL-1435™) and LNCaP (ATTCC® Number CRL-1740™)); brain cancer cells (U87 glioblastoma (ATTCC® Number HTB-14™) and SH-SYSY neuroblastoma (ATTCC® Number CRL-2266™)).
as §1
Cells were grown as subconfluent monolayer and cultured in 75 cm^2 flasks at 37° C., 5% CO2 in a humidified atmosphere, and medium was changed every two days. Only cells from passages 2-6 were used for the experiments.
After observation of cells under the microscope, old media were removed and the adherent cells washed gently twice with PBS (Phosphate Buffer Saline, —Ca^2+, —Mg^2+, Lonza cat no: 17-512F/12). All cells were detached with 3 ml of trypsin/EDTA (chelator of calcium and magnesium ions) (Lonza), incubated for 5 min at 37° C., and examined using a microscope to ensure that the cells were detached and floating. Then, 3 ml TNS (Trypsin Neutralizing Solution, Lonza, France, cat no CC-5002) or of culture medium were added to inactivate the trypsin, and the cell suspension was transferred in a falcon and centrifuged for 7 min at 1400 rpm. The supernatant was removed and the cell pellet resuspended in […] of culture medium. 50 μl of this solution were transferred in 20 μl of isotonic solution and the cells were counted by count cellular (Beckman Coulter). At day 0, 200 μl of cellular suspension (3.10^3 cells/well for the HUVEC cells, breast cancer cells (MDA-MB-231 1.10^4 cells/well, MDA-MB-436 1.10^4 cells/well, MDA-MB-438 2.10^4 cells/well, BT-474 2.5.10^4 cells/well); cervical cancer cells (HeLa 5.000 cells/well); colon cancer cells (HCT-116 5.10^3 cells/well, HCT-29 1.1.10^4 cells/well); osteosarcoma cells (U2OS 8.10^3 cells/well); pancreas cancer cells (MIA PaCa-2 5.10^3 cells/well, Panc-10.5 1.5.10^4 cells/well); prostate cancer cells (PC-3 4.10^3 cells/well, LNCaP 2.10^4 cells/well); brain cancer cells (U87 5.10^3 cells/well, SH-SYSY 8.10^4 cells/well)) were then plated on 96 well plates and incubated at 37° C. in a humidified atmosphere of 5% CO2 for 24 h.
At day 1, the compounds 1 or 2 of the invention were added at increasing concentrations (0.1-10 μM) in the wells and plates were incubated at 37° C. in a humidified atmosphere of 5% CO2 for 72 h.
The cell proliferation WST-1 assay is a colorimetric assay for the quantification of cell proliferation and viability, based on the enzymatic cleavage of the tetrazolium salt WST-1 added to the culture medium, to a water soluble colored formazan dye, detected by absorbance at 450 nm, by mitochondrial succinate-tetrazolium reductase in viable cells. An augmentation in enzyme activity will then lead to an increase in the amount of formazan dye formed, which directly correlates to the number of metabolically active cells in the culture.
After an incubation period of 72 h, at day 4, were prepared the 19 ml medium with reagent WST-1 1 ml ([…]). The medium was removed from the 96 microplate and 200 μl of solution WST-1/medium were added for each well. […]

[5] = test system: U266; test: WST-1 proliferation assay, U266; conditions: Homo sapiens, U-266; Myeloma U266; read-out: Anti-proliferative activity IC50 (μM) ± SD
Protocol: as §1, §2, §3, §4

[6] = test system: HCT-29; test: WST-1 proliferation assay, HCT-29; conditions: Homo sapiens; Colon HCT-29, 72 h; read-out: Anti-proliferative activity IC50 (μM) ± SD
Excerpt: as §5, with “CRL-2266™)). […]” for “CRL-2266™)).”
(§6) After observation of cells under the microscope, old media were removed and the adherent cells washed gently twice with PBS (Phosphate Buffer Saline, —Ca^2+, —Mg^2+, Lonza cat no: 17-512F/12). […] 50 μl of this solution were transferred in 20 μl of isotonic solution and the cells were counted by count cellular (Beckman Coulter). […]
as §3

[7] = test system: U87 glioblastoma; test: WST-1 proliferation assay, U87; conditions: Homo sapiens
[8] = test system: MIA PaCa-2; test: WST-1 proliferation assay, MIA PaCa-2; conditions: Homo sapiens; Pancreas MIA PaCa-2, 72 h; read-out: Anti-proliferative activity IC50 (μM) ± SD
Excerpt: as §5, with “CRL-2266™)). […]” for “CRL-2266™)).”
as §6, §3

For `Cc1ccc(-c2nc3ccccc3[nH]2)cc1NC(=S)NC(=O)c1ccc2c(c1)OCCO2` [Compound 1, N-[5-(1H-benzimidazol-2-yl)-2-methylphenyl]-N′-(2,3-dihydro-1,4-benzodioxin-6-ylcarbonyl)thiourea], the “maintenance of new blood vessels (tube maintenance)” value [1] was “effectively inhibited”, the IC50 [2] was 1.8 ± 0.04 µM and the inhibition at 0.05 µM [3] was 4%. For the same compound, the IC50 [4] was 1 µM, the inhibition at 0.1 µM [4] was 0% and the inhibition at 0.5 µM [4] was 45%. The inhibition at 1 µM [4] was 54%, the IC50 [5] was 2 µM and the IC50 [6] was 0.5 ± 0.05 µM. It also gave an inhibition at 0.05 µM [7] of 0% and an IC50 [8] of 1 µM.

With `O=C(NC(=S)Nc1cccc(-c2nc3ccccc3[nH]2)c1)c1ccc2c(c1)OCCO2` [Compound 2, N-[3-(1H-benzimidazol-2-yl)phenyl]-N′-(2,3-dihydro-1,4-benzodioxin-6-ylcarbonyl)thiourea] the “maintenance of new blood vessels (tube maintenance)” value [1] was “effectively inhibited”, the IC50 [2] was 1 µM and the inhibition at 0.05 µM [3] was 49%. It also gave an IC50 [4] of 0.3 ± 0.02 µM, an inhibition at 0.1 µM [4] of 44% and an inhibition at 0.5 µM [4] of 60%. It also gave an inhibition at 1 µM [4] of 61%, an IC50 [5] of 1.5 ± 0.04 µM and an IC50 [6] of 0.1 ± 0.01 µM. It also gave an inhibition at 0.05 µM [7] of 19% and an IC50 [8] of 1 µM.

Reference: patent US20130041005A1, “PHARMACEUTICAL COMPOSITIONS COMPRISING NEUROPILIN INHIBITORS, AND THEIR USE FOR THE PREVENTION AND/OR TREATMENT OF ANGIOGENIC DISORDERS AND CANCERS” (TRAGEX PHARMA, priority 2011, published 2013)
